Values joined by “and” are separate entries in the source; they are usually repeats but may differ in a detail not shown here. Equal values may be shown once. “Also recorded” adds a separate entry of the source.
Experiments:
[1] = target: T1, sigma-2 receptors (Homo sapiens, UniProt Q5BJF2); experiment: Flow cytometry displacement of sigma-2 fluorescent ligand NO1 in human pancreatic cancer cells; format: binding
T1 construct: endogenous in cells; host or cells: MiaPaCa2, PANC-1, AsPC1 (whole cells)
Description: Flow cytometry studies to detect receptor densities and ligand binding affinities were carried out according to Abate et al. and Niso et al., for the sigma-1 and sigma-2 receptors, respectively. […] At the end of the incubation periods, the cells were washed twice with PBS, detached with […] Cell Dissociation Solution (Sigma Chemical Co.) for 10 min at 37 °C, centrifuged at 13,000 g for 5 min and resuspended in 500 µl PBS. Fluorescence was recorded using a Bio-Guava® easyCyte™ 5 Flow Cytometry System (Millipore, Billerica, MA, USA) equipped with a 530 nm band pass filter. For each analysis, 50,000 events were collected and analyzed using InCyte software (Millipore).

[2] = target: T2, sigma-1 receptors (Homo sapiens, UniProt Q99720); experiment: Flow cytometry displacement of sigma-1 fluorescent ligand LM1 in human pancreatic cancer cells; format: binding
T2 construct: endogenous in cells; host or cells: PANC-1, MiaPaCa2 (whole cells)
Description: (10 µM) was co-incubated. At the end of the incubation periods, the cells were washed twice with PBS, detached with […] Cell Dissociation Solution (Sigma Chemical Co.) for 10 min at 37 °C, centrifuged at 13,000 g for 5 min and resuspended in 500 µl PBS. Fluorescence was recorded using a Bio-Guava® easyCyte™ 5 Flow Cytometry System (Millipore, Billerica, MA, USA), equipped with a 530 nm band pass filter. For each analysis, 50,000 events were collected and analyzed using InCyte software (Millipore).

[3] = test system: AspC1 cells; experiment: Cell viability MTT assay 48 h; format: cell-based; details: Homo sapiens, MTT 48 h, read-out: Activity EC50 ± SEM, AspC1
Description: (§1) Cell viability was assessed using a MTT assay at 48 h. On day 1, 25,000 cells/well were seeded into 96-well plates in 100 µl culture medium. On day 2, drugs at concentrations ranging from 1 µM to 100 µM were added. In all experiments the drug-solvents (EtOH, DMSO) were added as controls to evaluate possible solvent cyto-toxicities. After the established incubation time with drugs (48 h), MTT (0.5 mg/ml) was added to each well, and after 3–4 h incubation at 37 °C, the supernatants were removed. The formazan crystals formed were solubilized using 100 µl DMSO/EtOH (1:1) after which the absorbance values at 570 and 630 nm were determined using a microplate reader Victor 3 from PerkinElmer Life Sciences.

[4] = test system: BxPC3 cells; experiment: Cell viability MTT assay 48 h; format: cell-based; details: Homo sapiens, BXPC-3; MTT 48 h; read-out: Activity EC50 ± SEM, BxPC3
Description: as §1

[5] = test system: HPDE cells; experiment: Cell viability MTT assay 48 h; format: cell-based; details: Homo sapiens, MTT 48 h, read-out: Activity EC50 ± SEM, HPDE (normal cells)
Description: as §1

[6] = test system: KP02 cells; experiment: Cell viability MTT assay 48 h; format: cell-based; details: Mus musculus; MTT 48 h; read-out: Activity EC50 ± SEM, KP02
Description: as §1

[7] = test system: MiaPaCa2 cells; experiment: Cell viability MTT assay 48 h; format: cell-based; details: Homo sapiens, MIA PaCa-2; MTT 48 h; read-out: Activity EC50 ± SEM, MiaPaCa2
Description: as §1

[8] = test system: PANC-1 cells; experiment: Cell viability MTT assay 48 h; format: cell-based; details: Homo sapiens
Description: as §1

[9] = test system: human (MiaPaCa2, PANC-1, AsPC1, BxPC3) and murine (KP02, PANC02) pancreatic cancer cells; experiment: Cell viability MTT assay 48 h, panel of pancreatic cancer cell lines; format: cell-based; details: range over six pancreatic cancer cell lines; read-out: EC50 cytotoxic activity in all the cell lines studied
Description: as §1

[10] = test system: caspase 3; experiment: Caspase 3 activity assay in pancreatic cancer cells; format: cell-based, human and murine; details: 2 h
Description: (§2) Caspase 3, caspase 7 and caspase 9 activation was measured using a Caspase 3/7 Fluorescence Assay kit (Cayman Chemical, Ann Arbor, MI, USA) and a Caspase 9 fluorometric assay kit (Enzo Life Science, Roma, Italy). The results are expressed as nmol of the hydrolyzed substrate of each caspase/mg cellular proteins, according to a previously set titration curve.

[11] = test system: caspase 7; experiment: Caspase 7 activity assay in pancreatic cancer cells; format: cell-based, human and murine; details: 50 µM, 2 h
Description: as §2

[12] = test system: mitochondrial depolarization; experiment: Mitochondrial depolarization assay (JC-1); format: cell-based, human and murine; details: 50 µM, 2 h, JC1 staining
Description: Staining with JC-1 fluorescent probe (Biotium Inc., Freemont, CA, USA) was performed as detailed in Riganti et al.. The resulting fluorescence units were used to calculate the percentage of green-fluorescent (i.e., depolarized) mitochondria versus red-fluorescent (i.e., polarized) mitochondria.

[13] = test system: ATG5, ATG7, ATG12, beclin 1, p62, LC3; experiment: Western blotting of autophagy and sequestration markers; format: cell-based, human and murine; details: 50 µM, 2 h
Description: Cells were rinsed with ice-cold lysis buffer (50 mM, Tris, 10 mM EDTA, 1 % v/v Triton-X100), supplemented with protease inhibitor cocktail set III (80 µM aprotinin, 5 mM bestatin, 1.5 mM leupeptin, 1 mM pepstatin; Calbiochem, San Diego, CA, USA), 2 mM phenylmethylsulfonyl fluoride and 1 mM Na3VO4, then sonicated and centrifuged at 13,000 g for 10 min at 4 °C. 20 µg protein extracts were subjected to SDS-PAGE and probed with antibodies directed against ATG5, ATG7, ATG12, beclin, p62, LC3, GRP78, ATF6, IRE-1α and PERK (all from Abcam, Cambridge, UK), followed by incubation with a peroxidase-conjugated secondary antibody (Bio-Rad Laboratories). Next, the membranes were washed with Tris-buffered saline-Tween 0.1 % v/v solution, and proteins were detected by enhanced chemiluminescence (Bio-Rad Laboratories). To check for equal loading, the samples were probed with an anti-β-tubulin antibody (Santa Cruz Biotechnology Inc., Santa Cruz, CA, USA).

[14] = test system: MiaPaCa2 xenografts; experiment: In vivo xenograft assay, MiaPaCa2; design: species or system mice; details: FA4 750 and 1500 nmol i.p. daily, 15 days
Description: 2 × 10^5 PANC-1 or Mia-PaCa2 cells were inoculated subcutaneously in the right flank of 6-week old C57BL/6 female nude mice (Charles River Laboratories Italia, Calco), housed (5 per cage) under a 12 h light/dark cycle, with food and drinking water provided ad libitum. Tumor growth was measured daily by caliper, according to the equation (LxW^2)/2, where L = tumor length and W = tumor width. When tumors reached a volume of 100 mm^3, the mice (n = 8/group) were randomized in the following groups and treated daily for 15 days or 30 days intraperitoneally as reported: (1) Vehicle group (100 µl saline solution), (2) FA4^low group (750 nmol FA4 in 100 µl saline solution), (3) FA4^high group (1500 nmol FA4 in 100 µl saline solution) and (4) Gemcitabine group (20 mg/kg gemcitabine, twice a week). Tumor volumes and animal weights were monitored daily. Animals were euthanized at day 18 or 36 after randomization with zolazepam (0.2 ml/kg) and xylazine (16 mg/kg). Next, tumors were excised and paraffin-embedded. […] Quantification of the immunohistochemical analyses was performed using ImageJ software (https://imagej.nih.gov/). The staining intensities were expressed as arbitrary units and considered 1 in the vehicle group.

[15] = Systemic toxicity and hematochemical parameters of treated PANC-1 tumor-bearing mice; details: PANC-1 tumor-bearing mice, 30 days treatment
Description: 2 × 10^5 PANC-1 or Mia-PaCa2 cells were inoculated subcutaneously in the right flank of 6-week old C57BL/6 female nude mice (Charles River Laboratories Italia, Calco), housed (5 per cage) under a 12 h light/dark cycle, with food and drinking water provided ad libitum. Tumor growth was measured daily by caliper, according to the equation (LxW^2)/2, where L = tumor length and W = tumor width. […] Tumor volumes and animal weights were monitored daily. Animals were euthanized at day 18 or 36 after randomization with zolazepam (0.2 ml/kg) and xylazine (16 mg/kg). […] Red blood cell (RBC) count, hemoglobin (Hb), white blood cell (WBC) count, platelet (PLT) count, lactate dehydrogenase (LDH), aspartate aminotransferase (AST), alanine aminotransferase (ALT), alkaline phosphatase (AP), creatinine and creatine phosphokinase (CPK) were measured in blood samples collected immediately after euthanasia, using commercially available kits from Beckman Coulter Inc (Beckman Coulter, Miami, FL, USA).
Blood was collected immediately after euthanasia and analyzed for red blood cells (RBC) count, hemoglobin (Hb), white blood cells (WBC) count, platelets (PLT) count, lactate dehydrogenase (LDH), aspartate aminotransferase (AST), alanine aminotransferase (ALT), alkaline phosphatase (AP), creatinine, creatine phosphokinase (CPK). Data are presented as means ± SD.

T2 sequence (Q99720 whole entry): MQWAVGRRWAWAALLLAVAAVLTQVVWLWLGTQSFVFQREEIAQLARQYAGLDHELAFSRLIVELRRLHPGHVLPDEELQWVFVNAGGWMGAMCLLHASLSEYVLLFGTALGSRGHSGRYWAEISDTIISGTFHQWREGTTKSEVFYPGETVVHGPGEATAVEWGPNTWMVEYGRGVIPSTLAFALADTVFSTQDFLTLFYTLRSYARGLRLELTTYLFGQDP
T1 sequence (Q5BJF2 whole entry): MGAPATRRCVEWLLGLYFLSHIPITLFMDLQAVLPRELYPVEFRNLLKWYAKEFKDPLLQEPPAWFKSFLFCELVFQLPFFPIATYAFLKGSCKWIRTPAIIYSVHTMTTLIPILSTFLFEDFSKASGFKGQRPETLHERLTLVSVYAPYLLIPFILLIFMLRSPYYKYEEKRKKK

For `CN(C)C(=S)N/N=C1\C(=O)N(CCCCN2CCC3(CC2)OCc2ccccc23)c2ccccc21` [FA4, (Z)-2-(1-(4-(3 H-spiro[isobenzofuran-1,4’-piperidine]-1’-yl)butyl)-2-oxoindolin-3-ylidene)-N,N-dimethylhydrazinecarbothioamide], which IC50 ([1]; Flow Cytometry, IC50 ± SEM, Sigma-2, AspC1, AspC1 cells, displacement of NO1) is on record?
Its IC50 is 10.6 ± 2.2 nM.

What about the IC50 ([1]; Flow Cytometry, IC50 ± SEM, Sigma-2, MiaPaCa2, MiaPaCa2 cells, displacement of NO1) of the same molecule?
The IC50 was 9.13 ± 1.1 nM.

What about the IC50 ([1]; Flow Cytometry, IC50 ± SEM, Sigma-2, PANC-1, PANC-1 cells, displacement of NO1) of the same molecule?
The IC50 was 11.4 ± 2.3 nM.

And the IC50 ([1]; IC50 at sigma-2 receptors by flow cytometry, across MiaPaCa2, PANC-1, Aspc1 and (murine) KP02 cells)?
Its IC50 is 9.13 to 11.6 nM and ~10 nM.

What about the IC50 ([2]; Flow Cytometry, IC50 ± SEM, Sigma-1, MiaPaCa2, MiaPaCa2 cells, displacement of LM1) of the same molecule?
The IC50 was 53.2 ± 5.6 nM.

What about the IC50 ([2]; Flow Cytometry, IC50 ± SEM, Sigma-1, PANC-1, PANC-1 cells, displacement of LM1) of the same molecule?
The IC50 was 51.3 ± 4.3 nM.

And the IC50 ([2]; IC50 at sigma-1 receptor by flow cytometry (discussion), PANC-1 and MiaPaCa2 cells)?
The IC50 was ~50 nM.

What about the “lower affinity for the sigma-1 receptor compared to the sigma-2 receptor” value ([2]; flow cytometry IC50 values) of the same molecule?
The value was 5 fold.

And the EC50 [3]?
Its EC50 is 1390 ± 300 nM.

What about the EC50 [4] of the same molecule?
The EC50 was 1360 ± 200 nM.

And the EC50 [5]?
The EC50 was 6110 ± 1100 nM.

And the EC50 [6]?
The EC50 was 880 ± 100 nM.

What about the EC50 [7] of the same molecule?
The EC50 was 1980 ± 400 nM.

What about the EC50 ([8]; MTT 48 h, read-out: Activity EC50 ± SEM, PANC-1) of the same molecule?
The EC50 was 3010 ± 800 nM.

What about the IC50 ([8]; read-out: IC50 in PANC1 cells (discussion)) of the same molecule?
The IC50 was 3010 nM.

And the EC50 [9]?
The EC50 was 880 to 3010 nM.

And the “caspase 3 activation” value ([10]; 50 µM, MiaPaCa2, PANC-1, AspC1, KP02, PANC02 cells)?
Its value is “activated caspase 3 in all the cell lines investigated; also recorded: most potent inducer of caspase 3 in all cell lines tested”.

And the “induction of caspases 3, 7, 9 at IC50 concentration” value ([10]; concentration corresponding to IC50 in each cell line)?
Its value is “significant inducer of caspases in all the cell lines analyzed, except for MiaPaCa2”.

What about the “caspase 7 activation” value [11] of the same molecule?
Its value is “activated by FA4 in all cell lines except MiaPaCa2”.

What about the mitochondrial depolarization [12] of the same molecule?
The mitochondrial depolarization was “all FA4-treated cells had depolarized (i.e., damaged) mitochondria, except MiaPaCa2”.

What about the “levels of autophagosome proteins, p62 and LC3 conversion” value [13] of the same molecule?
The value was “reduced the levels of all the above-mentioned proteins as well as the LC-I/LC-II conversion in responsive cells, but not in MiaPaCa2 cells”.

What about the tumor growth [14] of the same molecule?
The tumor growth was “ineffective at both dosages”.

What about the “treatment-related deaths, weight loss, abnormalities in behavior” value [15] of the same molecule?
Its value is “No treatment-related deaths, weight loss or abnormalities in mouse behavior were observed”.

— publication PMC8648660, “Multifunctional thiosemicarbazones targeting sigma receptors: in vitro and in vivo antitumor activities in pancreatic cancer models” (Cellular Oncology, 2021)
